Laboratory results from ChEMBL document CHEMBL4619712, “Double-component diazeniumdiolate derivatives as anti-cancer agents” (Bioorg Med Chem, 2020).
The source made the active and inactive calls. The calls are words filed in the database; no cut-off is given here.

What was measured:
CCRF-CEM [1] = experiment: Induction of apoptosis in human CCRF-CEM cells assessed as necrotic cells at 8 uM after 48 hrs by Annexin V/propidium iodide staining based flow cytometry (reference value: 0.11%); format: functional
CCRF-CEM [2] = experiment: (§1) Induction of apoptosis in human CCRF-CEM cells assessed as late apoptotic cells at 8 uM after 72 hrs by Annexin V/propidium iodide staining based flow cytometry (reference value: 8.60%); format: functional
CCRF-CEM [3] = experiment: Cell cycle arrest in human CCRF-CEM cells assessed as accumulation of cells at G2/M phase at 8 uM after 72 hrs by RNAse/propidium iodide staining based flow cytometry (reference value: 25.6%); format: functional
CCRF-CEM [4] = experiment: Cell cycle arrest in human CCRF-CEM cells assessed as accumulation of cells at sub G1 phase at 8 uM after 24 hrs by RNAse/propidium iodide staining based flow cytometry (reference value: 0.1%); format: functional
CCRF-CEM [5] = experiment: Induction of apoptosis in human CCRF-CEM cells assessed as increase in Bax level after 72 hrs by western blot analysis; format: functional, cell-based
[6] = molecular target: T1, MAP kinase p38 (Homo sapiens) (UniProt O15264+Q15759+Q16539+P53778); experiment: Activation of p38 in human CCRF-CEM cells assessed as increase in p38 level at 8 uM incubated for 1 to 6 hrs by Western blot analysis; format: cell-based
CCRF-CEM [7] = experiment: Cell cycle arrest in human CCRF-CEM cells assessed as accumulation of cells at G1/G0 phase at 8 uM after 48 hrs by RNAse/propidium iodide staining based flow cytometry (reference value: 28.3%); format: functional
CCRF-CEM [8] = experiment: Induction of apoptosis in human CCRF-CEM cells assessed as early apoptotic cells at 8 uM after 48 hrs by Annexin V/propidium iodide staining based flow cytometry (reference value: 0.87%); format: functional
CCRF-CEM [9] = experiment: Induction of apoptosis in human CCRF-CEM cells assessed as viable cells at 8 uM after 8 hrs by Annexin V/propidium iodide staining based flow cytometry (reference value: 90.4%); format: functional; settings: read-out: Activity
CCRF-CEM [10] = experiment: Induction of apoptosis in human CCRF-CEM cells assessed as viable cells at 8 uM after 72 hrs by Annexin V/propidium iodide staining based flow cytometry (reference value: 90.4%); format: functional; settings: read-out: Activity
CCRF-CEM [11] = experiment: Induction of apoptosis in human CCRF-CEM cells assessed as viable cells at 16 uM after 72 hrs by Annexin V/propidium iodide staining based flow cytometry (reference value: 90.4%); format: functional; settings: read-out: Activity
CCRF-CEM [12] = experiment: Induction of apoptosis in human CCRF-CEM cells assessed as early apoptotic cells at 4 uM after 72 hrs by Annexin V/propidium iodide staining based flow cytometry (reference value: 0.87%); format: functional
CCRF-CEM [13] = experiment: Induction of apoptosis in human CCRF-CEM cells assessed as necrotic cells at 8 uM after 8 hrs by Annexin V/propidium iodide staining based flow cytometry (reference value: 0.11%); format: functional
CCRF-CEM [14] = experiment: Induction of apoptosis in human CCRF-CEM cells assessed as necrotic cells at 8 uM after 24 hrs by Annexin V/propidium iodide staining based flow cytometry (reference value: 0.11%); format: functional
CCRF-CEM [15] = experiment: Induction of apoptosis in human CCRF-CEM cells assessed as viable cells at 4 uM after 72 hrs by Annexin V/propidium iodide staining based flow cytometry (reference value: 90.4%); format: functional; settings: read-out: Activity
CCRF-CEM [16] = experiment: Cell cycle arrest in human CCRF-CEM cells assessed as accumulation of cells at G1/G0 phase at 8 uM after 72 hrs by RNAse/propidium iodide staining based flow cytometry (reference value: 28.3%); format: functional
[17] = molecular target: T1, MAP kinase p38 (Homo sapiens); experiment: Activation of p38 in human CCRF-CEM cells assessed as increase in phosphorylated p38 level at 8 uM incubated for 1 to 6 hrs by Western blot analysis; format: cell-based
[18] = molecular target: c-Jun N-terminal kinase, JNK (Homo sapiens) (UniProt P45983+P53779+P45984); experiment: Activation of JNK in human CCRF-CEM cells assessed as increase in JNK level at 8 uM incubated for 1 to 6 hrs by Western blot analysis; format: cell-based
CCRF-CEM [19] = experiment: Cell cycle arrest in human CCRF-CEM cells assessed as accumulation of cells at G1/G0 phase at 8 uM after 24 hrs by RNAse/propidium iodide staining based flow cytometry (reference value: 28.3%); format: functional
CCRF-CEM [20] = experiment: Induction of apoptosis in human CCRF-CEM cells assessed as viable cells at 8 uM after 48 hrs by Annexin V/propidium iodide staining based flow cytometry (reference value: 90.4%); format: functional; settings: read-out: Activity
CCRF-CEM [21] = experiment: Induction of apoptosis in human CCRF-CEM cells assessed as decrease in Bcl-2 level at 8 uM by Western blot analysis; format: functional, cell-based; settings: TDE = time-dependent effect
CCRF-CEM [22] = experiment: Induction of apoptosis in human CCRF-CEM cells assessed as increase in Bax level at 8 uM by Western blot analysis; format: functional, cell-based; settings: TDE = time-dependent effect
CCRF-CEM [23] = experiment: Cell cycle arrest in human CCRF-CEM cells assessed as accumulation of cells at sub G1 phase at 8 uM after 72 hrs by RNAse/propidium iodide staining based flow cytometry (reference value: 0.1%); format: functional
CCRF-CEM [24] = experiment: Induction of apoptosis in human CCRF-CEM cells assessed as early apoptotic cells at 2 uM after 72 hrs by Annexin V/propidium iodide staining based flow cytometry (reference value: 0.87%); format: functional
CCRF-CEM [25] = experiment: Induction of apoptosis in human CCRF-CEM cells assessed as necrotic cells at 16 uM after 72 hrs by Annexin V/propidium iodide staining based flow cytometry (reference value: 0.11%); format: functional
CCRF-CEM [26] = experiment: Induction of apoptosis in human CCRF-CEM cells assessed as late apoptotic cells at 4 uM after 72 hrs by Annexin V/propidium iodide staining based flow cytometry (reference value: 8.60%); format: functional
CCRF-CEM [27] = experiment: as §1; format: functional; remark: listed apart in the source

O=[N+]([O-])c1ccc(O/N=[N+](\[O-])N2CCC(CN3CCN(/[N+]([O-])=N/Oc4ccc([N+](=O)[O-])cc4[N+](=O)[O-])CC3)CC2)c([N+](=O)[O-])c1
Activity (CCRF-CEM [1]): 0.058%
Activity (CCRF-CEM [2]): 52.5%
Activity (CCRF-CEM [3]): 63.7%
Activity (CCRF-CEM [4]): 3.5%
Activity (CCRF-CEM [5]): Dose-dependent effect
Activity [6]: Active
Activity (CCRF-CEM [7]): 28.9%
Activity (CCRF-CEM [8]): 6.51%
viability at 8 µM (CCRF-CEM [9]): 61.5%
viability at 8 µM (CCRF-CEM [10]): 42.5%
viability at 16 µM (CCRF-CEM [11]): 0.63%
Activity (CCRF-CEM [12]): 3.53%
Activity (CCRF-CEM [13]): 0.38%
Activity (CCRF-CEM [14]): 0.072%
viability at 4 µM (CCRF-CEM [15]): 77.9%
Activity (CCRF-CEM [16]): 28.8%
Activity [17]: Active
Activity [18]: Active
Activity (CCRF-CEM [19]): 24.5%
viability at 8 µM (CCRF-CEM [20]): 43.6%
Activity (CCRF-CEM [21]): Tde
Activity (CCRF-CEM [22]): Tde
Activity (CCRF-CEM [23]): 7.5%
Activity (CCRF-CEM [24]): 3%
Activity (CCRF-CEM [25]): 0.08%
Activity (CCRF-CEM [26]): 10.6%
Activity (CCRF-CEM [27]): 56.2%
